Experiments:
TRPC6 = details: Ca^2+ influx assays; cited from earlier work
[1] = detection of SH045 metabolites in MLM, HLM and mouse urine by LC-MS/MS; format: in vitro ADME, mouse and human; details: metabolite of SH045 detected in MLM, HLM (NADPH, UDPGA) and/or mouse urine after 20 mg/kg BW i.v.
Description: To explore metabolites of SH045 formed by microsomes, DPBS, alamethicin (25 µg/mL) and MLM or HLM (1.0 mg/mL) were pre-incubated, further incubated with SH045 MgCl2, NADPH and UDPGA, terminated, and processed for LC-MS/MS analysis as described. Positive controls with testosterone and 4-nitrophenol and negative controls were analyzed too (Supplementary Materials SM7).
Larixyl-N-methylcarbamate ((1S,4S,4aR,8aS)-4-((S)-3-hydroxy-3-methylpent-4-en-1-yl)-4a,8,8-trimethyl-3-methylenedeca-hydro-naphthalen-1-yl methylcarbamate, SH045, TRPC6 inhibitor) was synthesized as described by Häfner et al. [1]. (+)-Larixol (internal standard, IS) was isolated from Larix decidua turpentine [2]. Kolliphor® EL was obtained from Caelo (Hilden, Germany). […]
SM2 Quantification of SH045 by HPLC and tandem mass spectrometric methods (LC-MS/MS) In brief, chromatographic separation was achieved using a Zorbax Eclipse XDB-C8 column (100 × 3.0 mm, 3.5 μm 80 Å, Agilent Technologies) with linear gradient elution using water and ACN, each with 0.1 % formic acid as additive, during a total run time of 20 min. For quantification (+)-larixol was used as IS. […] Freshly prepared calibration samples for SH045 in plasma and tissue comprised eight concentration levels analyzed in duplicates (2, 5, 10, 100, 200, 800, 1200 and 1600 ng/mL). […]

[2] = tested on: FSGS-related TRPC6 channel mutants, including M132T and R175Q; design: method as in PMID 28800680; details: including M132T and R175Q variants; cited from earlier work

Row | Occurrence [1] | Structure (SMILES) | IC50 (TRPC6) [nM] | inhibition of FSGS-related TRPC6 channel mutants [2]
1 |  | C=CC(C)(O)CCC1C(=C)CC(OC(C)=O)C2C(C)(C)CCCC12C (centres unmarked) [larixyl monoacetate] | ~500 | 
2 | MLM, HLM | CC[C@@](C)(O)CC[C@H]1C(C)C[C@H](OC(=O)NC)[C@H]2C(C)(C)CCC[C@]12C (some centres unmarked) [M2a] |  | 
3 | MLM, HLM | C=C[C@](C)(CC[C@H]1C(=C)C[C@H](OC(=O)NC)[C@H]2C(C)(C)CCC[C@]12C)O[C@@H]1O[C@H](C(=O)O)[C@@H](O)[C@H](O)[C@H]1O [M8a] |  | 
4 |  | C=CC(C)(O)CCC1C(=C)CC(OC(N)=O)C2C(C)(C)CCCC12C (centres unmarked) [larixyl-6-carbamate] | ~500 | strong inhibitor

From publication PMC8998618, “A Pharmacokinetic and Metabolism Study of the TRPC6 Inhibitor SH045 in Mice by LC-MS/MS” (International Journal of Molecular Sciences, 2022)
